Among the data in US9109004B2, “Progesterone receptor antagonists” (Bayer Intellectual Property GmbH, priority 2010, dated 2015) are IC50 values, retold here.

This assay addresses T1, human progesterone receptor A (Homo sapiens, UniProt P06401).
T1 construct: expressed in transfected cells; host or cells: SK-N-MC human neuroblastoma cells, stably transfected
T1 sequence (P06401 1-769 isoform P06401-2): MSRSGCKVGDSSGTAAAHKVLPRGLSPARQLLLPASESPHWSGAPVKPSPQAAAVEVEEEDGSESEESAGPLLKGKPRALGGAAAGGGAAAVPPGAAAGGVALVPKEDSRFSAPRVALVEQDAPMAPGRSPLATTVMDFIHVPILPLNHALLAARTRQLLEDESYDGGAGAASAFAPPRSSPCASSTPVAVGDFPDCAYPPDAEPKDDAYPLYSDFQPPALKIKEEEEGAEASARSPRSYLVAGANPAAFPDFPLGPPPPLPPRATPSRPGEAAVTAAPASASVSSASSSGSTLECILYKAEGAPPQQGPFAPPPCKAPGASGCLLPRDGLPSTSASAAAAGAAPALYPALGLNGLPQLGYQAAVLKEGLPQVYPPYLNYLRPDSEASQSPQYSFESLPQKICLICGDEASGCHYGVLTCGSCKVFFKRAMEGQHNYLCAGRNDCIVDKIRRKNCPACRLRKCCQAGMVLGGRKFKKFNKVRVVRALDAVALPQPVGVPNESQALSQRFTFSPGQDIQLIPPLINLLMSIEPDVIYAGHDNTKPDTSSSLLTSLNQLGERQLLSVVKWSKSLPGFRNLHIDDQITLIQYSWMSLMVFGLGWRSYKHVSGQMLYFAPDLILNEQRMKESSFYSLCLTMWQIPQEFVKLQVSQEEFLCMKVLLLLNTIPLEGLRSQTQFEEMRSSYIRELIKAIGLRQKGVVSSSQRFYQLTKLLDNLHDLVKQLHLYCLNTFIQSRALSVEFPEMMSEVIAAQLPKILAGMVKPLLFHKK
Briefly: Progesterone-receptor-antagonistic action in stably transfected SK-N-MC cells, MTV-LUC reporter (PR-A). The assay is classed as cell-based. The conditions noted are these: antagonistic potency vs 0.1 nmol/l promegestone, 24 hours, luciferase. How it is done:
Progesterone-Receptor-Antagonistic Action in Stable Transfectants of Human Neuroblastoma Cells (SK-N-MC Cells) with the Human Progesterone A or Progesterone B Receptor and an MTV-LUC Reporter Construct
SK-N-MC cells (human neuroblastoma cells) that have been stably transfected with plasmids that express the human progesterone receptor B (pRChPR-B-neo) or the human progesterone receptor A (pRChPR-A-neo) and a reporter construct (pMMTV-LUC), were incubated for 24 hours either in the absence (negative control) or in the presence of increasing amounts of the particular test compound (0.01 nmol/l, 0.1 nmol/l, 1 nmol/l, 10 nmol/l, 100 nmol/l and 1 μmol/l), to determine the agonistic efficacy. As positive control of reporter gene induction, the cells were treated with the synthetic gestagen promegestone (0.01 nmol/l, 0.1 nmol/l, 1 nmol/l, 10 nmol/l, 100 nmol/l and 1 μmol/l). For determination of the antagonistic activity, the cells were treated with 0.1 nmol/l promegestone and additionally with increasing amounts of the particular test compound (0.01 nmol/l, 0.1 nmol/l, 1 nmol/l, 10 nmol/l, 100 nmol/l and 1 μmol/l). The activity of the reporter gene LUC (LUC=luciferase) was determined in the cell lysates and was measured as RLU (relative light units). All measured values are given as % efficacy and as EC50 or IC50 concentrations.
Turning to `CN(Cc1cccnc1)C(=O)c1ccc([C@H]2C[C@@]3(C)[C@@H](CC[C@@]3(O)C(F)(F)C(F)(F)F)[C@@H]3CCC4=CC(=O)CCC4=C32)cc1` [Example 32, 4-[(11β,17β)-17-hydroxy-3-oxo-17-(pentafluoroethyl)estra-4,9-dien-11-yl]-N-methyl-N-(pyridin-3-ylmethyl)benzamide], 0.375 µM corresponded to half-maximal inhibition (IC50).
With `CN(Cc1ccncc1)C(=O)c1ccc([C@H]2C[C@@]3(C)[C@@H](CC[C@@]3(O)C(F)(F)C(F)(F)F)[C@@H]3CCC4=CC(=O)CCC4=C32)cc1` [Example 33, 4-[(11β,17β)-17-hydroxy-3-oxo-17-(pentafluoroethyl)estra-4,9-dien-11-yl]-N-methyl-N-(pyridin-4-ylmethyl)benzamide], half-maximal inhibition (IC50) required 0.00698 µM.
Turning to `C[C@]12C[C@H](c3ccc(C(=O)NCc4ccccc4)cc3)C3=C4CCC(=O)C=C4CC[C@H]3[C@@H]1CC[C@@]2(O)C(F)(F)C(F)(F)F` [Example 34, N-benzyl-4-[(11β,17β)-17-hydroxy-3-oxo-17-(pentafluoroethyl)estra-4,9-dien-11-yl]benzamide], the IC50 (in general, the concentration that gives 50% inhibition) amounted to 0.0144 µM.
In turn, `COc1ccc(CNC(=O)c2ccc([C@H]3C[C@@]4(C)[C@@H](CC[C@@]4(O)C(F)(F)C(F)(F)F)[C@@H]4CCC5=CC(=O)CCC5=C43)cc2)cc1` [Example 35, 4-[(11β,17β)-17-hydroxy-3-oxo-17-(pentafluoroethyl)estra-4,9-dien-11-yl]-N-(4-methoxybenzyl)benzamide] showed an IC50 of 0.034 µM.
The compound `C[C@]12C[C@H](c3ccc(C(=O)NCc4ccc(Cl)cc4)cc3)C3=C4CCC(=O)C=C4CC[C@H]3[C@@H]1CC[C@@]2(O)C(F)(F)C(F)(F)F` [Example 36, N-(4-chlorobenzyl)-4-[(11β,17β)-17-hydroxy-3-oxo-17-(pentafluoroethyl)estra-4,9-dien-11-yl]benzamide] registered an IC50 of 0.02 µM.
`CC(=O)NCCNC(=O)c1ccc([C@H]2C[C@@]3(C)[C@@H](CC[C@@]3(O)C(F)(F)C(F)(F)F)[C@@H]3CCC4=CC(=O)CCC4=C32)cc1` [Example 37, N-(2-acetamidoethyl)-4-[(11β,17β)-17-hydroxy-3-oxo-17-(pentafluoroethyl)estra-4,9-dien-11-yl]benzamide] had an IC50 of 0.385 µM.
In turn, `COC(=O)c1ccc(NC(=O)c2ccc([C@H]3C[C@@]4(C)[C@@H](CC[C@@]4(O)C(F)(F)C(F)(F)F)[C@@H]4CCC5=CC(=O)CCC5=C43)cc2)cc1` [Example 38, methyl-4-({4-[(11β,17β)-17-hydroxy-3-oxo-17-(pentafluoroethyl)estra-4,9-dien-11-yl]benzoyl}amino)benzoate] displayed an IC50 of 0.00188 µM.
`C[C@]12C[C@H](c3ccc(C(=O)N4CCc5ccccc5C4)cc3)C3=C4CCC(=O)C=C4CC[C@H]3[C@@H]1CC[C@@]2(O)C(F)(F)C(F)(F)F` [Example 39, (11β,17β)-11-[4-(3,4-dihydroisoquinolin-2(1H)-ylcarbonyl)phenyl]-17-hydroxy-17-(pentafluoroethyl)estra-4,9-dien-3-one] registered an IC50 of 0.0095 µM.
With `C[C@]12C[C@H](c3ccc(C(=O)N4CCN(Cc5ccccc5)CC4)cc3)C3=C4CCC(=O)C=C4CC[C@H]3[C@@H]1CC[C@@]2(O)C(F)(F)C(F)(F)F` [Example 40, (11β,17β)-11-{4-[(4-benzylpiperazin-1-yl)carbonyl]phenyl}-17-hydroxy-17-(pentafluoroethyl)estra-4,9-dien-3-one], the IC50 came out at 0.117 µM.
As for `C[C@]12C[C@H](c3ccc(C(=O)Nc4ccc(C(N)=O)cc4)cc3)C3=C4CCC(=O)C=C4CC[C@H]3[C@@H]1CC[C@@]2(O)C(F)(F)C(F)(F)F` [Example 41, N-(4-carbamoylphenyl)-4-[(11β,17β)-17-hydroxy-3-oxo-17-(pentafluoroethyl)estra-4,9-dien-11-yl]benzamide], it took 0.0047 µM to reach half-maximal inhibition (IC50).
`C[C@]12C[C@H](c3ccc(C(=O)NC4CC4)cc3)C3=C4CCC(=O)C=C4CC[C@H]3[C@@H]1CC[C@@]2(O)C(F)(F)C(F)(F)F` [Example 42, N-cyclopropyl-4-[(11β,17β)-17-hydroxy-3-oxo-17-(pentafluoroethyl)estra-4,9-dien-11-yl]benzamide]: the IC50 stood at 0.0073 µM.
`CN(CCc1ccccc1)C(=O)c1ccc([C@H]2C[C@@]3(C)[C@@H](CC[C@@]3(O)C(F)(F)C(F)(F)F)[C@@H]3CCC4=CC(=O)CCC4=C32)cc1` [Example 43, 4-[(11β,17β)-17-hydroxy-3-oxo-17-(pentafluoroethyl)estra-4,9-dien-11-yl]-N-methyl-N-(2-phenylethyl)benzamide] displayed an IC50 of 0.0108 µM.
As to `C[C@]12C[C@H](c3ccc(C(=O)N4CCN(CCc5ccccc5)CC4)cc3)C3=C4CCC(=O)C=C4CC[C@H]3[C@@H]1CC[C@@]2(O)C(F)(F)C(F)(F)F` [Example 44, (11β,17β)-17-hydroxy-17-(pentafluoroethyl)-11-(4-{[4-(2-phenylethyl)piperazin-1-yl]carbonyl}phenyl)estra-4,9-dien-3-one], the midpoint of inhibition, the IC50, lay at 0.025 µM.
In the case of `C[C@]12C[C@H](c3ccc(C(=O)N4CCN(c5ccncc5)CC4)cc3)C3=C4CCC(=O)C=C4CC[C@H]3[C@@H]1CC[C@@]2(O)C(F)(F)C(F)(F)F` [Example 45, (11β,17β)-17-hydroxy-17-(pentafluoroethyl)-11-(4-{[4-(pyridin-4-yl)piperazin-1-yl]carbonyl}phenyl)estra-4,9-dien-3-one] it was 0.026 µM.
In turn, `C[C@]12C[C@H](c3ccc(C(=O)N4CCN(c5cnccn5)CC4)cc3)C3=C4CCC(=O)C=C4CC[C@H]3[C@@H]1CC[C@@]2(O)C(F)(F)C(F)(F)F` [Example 46, (11β,17β)-17-hydroxy-17-(pentafluoroethyl)-11-(4-{[4-(pyrazin-2-yl)piperazin-1-yl]carbonyl}phenyl)estra-4,9-dien-3-one] yielded an IC50 of 0.0043 µM.
`CN(C)CCN1CCN(C(=O)c2ccc([C@H]3C[C@@]4(C)[C@@H](CC[C@@]4(O)C(F)(F)C(F)(F)F)[C@@H]4CCC5=CC(=O)CCC5=C43)cc2)CC1` [Example 47, (11β,17β)-11-[4-({4-[2-(dimethylamino)ethyl]piperazin-1-yl}carbonyl)phenyl]-17-hydroxy-17-(pentafluoroethyl)estra-4,9-dien-3-one] returned an IC50 of 0.346 µM.
In the case of `C[C@]12C[C@H](c3ccc(C(=O)N4CCN(CCN5CCCC5)CC4)cc3)C3=C4CCC(=O)C=C4CC[C@H]3[C@@H]1CC[C@@]2(O)C(F)(F)C(F)(F)F` [Example 48, (11β,17β)-17-hydroxy-17-(pentafluoroethyl)-11-[4-({4-[2-(pyrrolidin-1-yl)ethyl]piperazin-1-yl}carbonyl)phenyl]estra-4,9-dien-3-one] it was 0.667 µM; in that of `C[C@]12C[C@H](c3ccc(C(=O)N4CCN(Cc5ccncc5)CC4)cc3)C3=C4CCC(=O)C=C4CC[C@H]3[C@@H]1CC[C@@]2(O)C(F)(F)C(F)(F)F` [Example 49, (11β,17β)-17-hydroxy-17-(pentafluoroethyl)-11-(4-{[4-(pyridin-4-ylmethyl)piperazin-1-yl]carbonyl}phenyl)estra-4,9-dien-3-one], 0.0076 µM.
For the compound `CN(CCc1ccccn1)C(=O)c1ccc([C@H]2C[C@@]3(C)[C@@H](CC[C@@]3(O)C(F)(F)C(F)(F)F)[C@@H]3CCC4=CC(=O)CCC4=C32)cc1` [Example 50, 4-[(11β,17β)-17-hydroxy-3-oxo-17-(pentafluoroethyl)estra-4,9-dien-11-yl]-N-methyl-N-[2-(pyridin-2-yl)ethyl]benzamide], half-maximal inhibition (IC50) was put at 0.0157 µM.
`CN(Cc1ccccc1)C(=O)c1ccc([C@H]2C[C@@]3(C)[C@@H](CC[C@@]3(O)C(F)(F)C(F)(F)F)[C@@H]3CCC4=CC(=O)CCC4=C32)cc1` [Example 51, N-benzyl-4-[(11β,17β)-17-hydroxy-3-oxo-17-(pentafluoroethyl)estra-4,9-dien-11-yl]-N-methylbenzamide] showed an IC50 of 0.009 µM.
